Source: ChEMBL document CHEMBL4425148, “Cytotoxic prenylated flavones from the stem and root bark of Daphne giraldii” (Bioorg Med Chem Lett, 2016)

Columns and labels:
U-251 = assay: Cytotoxicity against human U251 cells assessed as reduction in cell growth incubated for 48 hrs by MTT assay; format: functional, cell-based; conditions: U-251, 48 h
HepG2 [1] = assay: cells; conditions: Homo sapiens, HepG2, 48 h
A549 = assay: Cytotoxicity against human A549 cells assessed as reduction in cell growth incubated for 48 hrs by MTT assay; format: functional, cell-based; conditions: A549, 48 h
Bcap37 = assay: Cytotoxicity against human Bcap37 cells assessed as reduction in cell growth incubated for 48 hrs by MTT assay; format: functional, cell-based; conditions: Bcap37, 48 h
MCF7 = assay: cells; conditions: Homo sapiens, MCF7, 48 h
HepG2 [2] = assay: Induction of apoptosis in human HepG2 cells after 48 hrs by Annexin V-FITC/propidium iodide based flow cytometric analysis; format: functional, cell-based
HepG2 [3] = assay: Induction of apoptosis in human HepG2 cells assessed as late apoptotic cells at 2 uM after 48 hrs by Annexin V-FITC/propidium iodide based flow cytometric analysis (reference value: 3.81 %); format: functional
HepG2 [4] = assay: Induction of apoptosis in human HepG2 cells assessed as early apoptotic cells at 2 uM after 48 hrs by Annexin V-FITC/propidium iodide based flow cytometric analysis (reference value: 3.33 %); format: functional

Row | Structure (SMILES) | IC50 (U-251) [µM] | IC50 (HepG2 [1]) [µM] | IC50 (A549) [µM] | IC50 (Bcap37) [µM] | IC50 (MCF7) [µM] | Activity (HepG2 [2]) | Activity (HepG2 [3]) [%] | Activity (HepG2 [4]) [%]
1 | O=c1[nH]cc(F)c(=O)[nH]1 [FLUOROURACIL] | 38.7 | 39.7 | 24.7 | 37.1 | – | – | – | –
2 | COc1c(-c2cc(O)c3c(c2)C=CC(C)(C)O3)oc2c(CC=C(C)C)c(O)cc(O)c2c1=O | > 100 | 36.7 | 66.8 | > 100 | 76.9 | – | – | –
3 | CC(C)=CCc1cc([C@@H]2CC(=O)c3ccc(O)cc3O2)c2c(c1O)OC(C)(C)CC2 | > 100 | > 100 | 18.4 | > 100 | > 100 | – | – | –
4 | COc1c(-c2ccc(O)c(O)c2)oc2c(CC=C(C)C)c(O)c(CC=C(C)C)c(O)c2c1=O | 17.3 | 14.1 | 25 | 45.4 | 18.8 | – | – | –
5 | CC(C)=CCc1c(-c2ccc(O)cc2O)oc2c3c(cc(O)c2c1=O)OC(C)(C)C=C3 [MORUSIN] | 17.9 | 9.3 | 24.1 | 33.1 | 11.5 | – | – | –
6 | COc1ccc(-c2cc(=O)c3c(O)c(OC)c(O)cc3o2)cc1OC [EUPATILIN] | > 100 | 52.6 | > 100 | > 100 | 90.1 | – | – | –
7 | COc1c(-c2cc(O)c3c(c2)C=CC(C)(C)O3)oc2c3c(cc(O)c2c1=O)OC(C)(C)[C@@H](O)C3 | 12 | 4.26 | 5.39 | 20.8 | 6.98 | Dose-dependent effect | 14.32 | 13.77
